The source of these data is patent publication US9993491B2, “Guanine riboswitch binding compounds and their use as antibiotics” (SOCPRA—SCIENCES ET GENIE S.E.C., priority 2009, dated 2018).

SMILES strings stand for the structures. ≈ marks a conversion by molar mass, not a printed value. Like-named read-outs stand apart in the source and are kept apart here.

For data set [1], the system named is S. aureus strain ATCC 29213. Put plainly: MIC / growth inhibition, microdilution method. It is filed as cell-based. Particulars: for MIC: Staphylococcus aureus, ATCC29213, 24 h; for S. aureus growth inhibition: Yes/No.
Data set [2] concerns guanine xpt riboswitch from Streptococcus pyogenes (STPY-xpt). Put plainly: Relative binding by displacement of 2-aminopurine from the STPY-xpt aptamer. The method, then: Shown in FIG. 4A is the structure of the guanine ligand and the compounds: 4-hydroxy-2,5,6-triaminopyrimidine shown as 2,5,6-triaminopyrimidine-4-one (compound 1.01), 2,4-diamino-6-hydroxypyrimidine shown as 2,6-diaminopyrimidine-4-one (compound 1.13) and 5,6-diamino-uracil (2AU) as well as their predicted hydrogen bonds (arrows). […] The experiment was performed as in for example Mulhbacher and Lafontaine, 2007. […] Briefly, STPY-xpt aptamers were incubated in the presence of the guanine-like ligand 2-aminopurine alone (Neg. control) or in the presence of 1 or 10 μM of the above-listed compounds. The relative binding affinity was obtained from the ability of a ligand to displace the 2-aminopurine from the guanine riboswitch STPY-xpt aptamer.

Data set [3] concerns Bacillus subtilis, Enterococcus feacium, Listeria monocytogenes, Streptococcus dysgalactiae, Streptococus pyogenes, Streptococcus uberis. It is filed as cell-based.
For data set [4], the system named is E. coli Imp. In words: microbe, parasite or virus in culture. Particulars: Escherichia coli, 24 h, read-out: Minimum inhibitory concentration (MIC).
Data set [5] concerns S. aureus strain ATCC 29213. Put plainly: Growth as a function of time (CFU counts). It is filed as cell-based. Particulars: compared with ciprofloxacin.
A short description of data set [6]: Tolerance of intramammary injection in cows. Particulars: intramammary 100 mg, 250 mg or 500 mg per quarter, 4 cows, 48 h. It is filed as in vivo, Holstein cows.
Data set [7] relates to S. aureus genes. In words: Transcriptomic microarray analysis of more than 500 genes. In kind it is cell-based. Particulars: 30 min.
Data set [8] concerns S. aureus strain ATCC 29213. It is filed as cell-based. Particulars: sub-inhibitory concentrations, MIC determined every 5 passages up to 30.
Data set [9] relates to E. coli ATCC35695. Put plainly: MIC, microdilution method in 96-well microplates. Particulars: for MIC: Escherichia coli, ATCC35695, 24 h, read-out: Minimum inhibitory concentration (MIC); for Antimicrobial activity on E. coli: E. coli strain ATCC 35695.
Data set [10] concerns S. aureus SHY97-3906. Put plainly: Bactericidal activity, fold reduction of CFU/mL. It is filed as cell-based. Particulars: 600 μg/mL, 4 hours. The method, then:
(§1) The bactericidal activity of compound 1.01 on various strains of S. aureus (including 3 chronic strains and 3 prototypical strains) was determined. These strains include prototypical S. aureus strains ATCC 29213, Newbould 305, SHY97-3906 as well as S. aureus strains isolated from persistent and chronic bovine mastitis cases (isolates #3, #557, #1290). C. difficile strain Cd6 was also examined. […] The results are summarized in Table 5 below and are expressed as the mean fold reduction of CFU/mL (i.e., the number of CFU/mL of control bacteria divided by the number of CFU/mL of treated bacteria).

Data set [11] relates to S. aureus Newbould 305. Put plainly: Bactericidal activity, fold reduction of CFU/mL. In kind it is cell-based. Particulars: 600 μg/mL, 4 hours. The protocol: as §1
Data set [12] concerns C. difficile (Cd6). Put plainly: Bactericidal activity, fold reduction of CFU/mL. It is filed as cell-based. Particulars: 600 μg/mL, 4 hours. The protocol: as §1
Data set [13] concerns S. aureus Chronic #3. In words: Bactericidal activity, fold reduction of CFU/mL. In kind it is cell-based. Particulars: 600 μg/mL, 4 hours. The method, then: as §1
Data set [14] concerns S. aureus Chronic #557. Put plainly: Bactericidal activity, fold reduction of CFU/mL. It is filed as cell-based. Particulars: 600 μg/mL, 4 hours. The method, then: as §1
Data set [15] concerns S. aureus ATCC 29213. Put plainly: Bactericidal activity, fold reduction of CFU/mL. It is filed as cell-based. Particulars: 600 μg/mL, 4 hours. The method, then:
as §1

Data set [16] concerns S. aureus Chronic #1290. Put plainly: Bactericidal activity, fold reduction of CFU/mL. Particulars: 600 μg/mL, 4 hours. It is filed as cell-based. The method, then: as §1
Data set [17] relates to S. aureus. In words: S. aureus infection of the mouse mammary glands, CFU count. In kind it is in vivo. Particulars: intra-mammary injection of 10 times the effective dose; treated 4 h after infection, glands excised 6 h later. The method, then:
The efficacy of compound 1.01 in treating a S. aureus infection of the mouse mammary glands was examined. Briefly, mouse mammary glands were infected with 100 CFU of S. aureus. Four hours after the inoculation, the glands were treated with vehicle (PBS), 10, 50 or 100 μg/gland of compound 1.01. Six hours later, glands were excised, homogenized and plated on Mueller-Hinton agar. CFU were then counted after 18 hours at 35° C. Each dot represents the CFU of each individual gland (n=6-12) and the median value for each group is indicated by the bar. Statistical differences (P<0.05) between CFU recovered from treated and untreated animals are shown by asterisks (non-parametric Kruskal-Wallis ANOVA with Dunn's post test).

The test system of data set [18] is E. coli AcrAB—/—. In words: microbe, parasite or virus in culture. Particulars: Escherichia coli, 24 h, read-out: Minimum inhibitory concentration (MIC).
In data set [19] the test system is Bacillus halodurans, S. haemolyticus, S. aureus ATCC29213, SA228a, MRSA COL, Clostridium botulinum, Clostridium difficile Cd6 and 630, S. epidermidis. It is filed as cell-based.
Data set [20] deals with guanine riboswitch. In words: Guanine riboswitch binding (Table 6). Particulars: Yes/No.
Data set [21] concerns methicillin resistant S. aureus. In words: Antibiogram with 6-thioguanine. It is filed as cell-based. Particulars: 0.5 or 1 mg/mL.
Data set [22] relates to E. coli ATCC 35695. Put plainly: Antibiogram with 6-thioguanine. It is filed as cell-based. Particulars: 0.5 or 1 mg/mL; E. coli ATCC 35695 (lacks guaA riboswitch).
Where [23] appears, read: S. aureus ATCC 29213, 24 h, 37° C., read-out: MIC.
Setting [24] is: compound at 10 μM, compared with 1 μM guanine.
[25] abbreviates: S. aureus ATCC 29213, 24 h, 37° C., read-out: S. aureus growth inhibition, MIC.

As to `O=C(O)c1cn(C2CC2)c2cc(N3CCNCC3)c(F)cc2c1=O` [ciprofloxacin, reference compound], in data set [1] (setting [23]), the MIC is 0.5 µg/mL (≈ 1.51 µM).

Regarding `O=c1[nH]c(=O)c2nc[nH]c2[nH]1` [xanthine], the Relative binding in data set [2] (setting [24]) is 0.08.

In turn, `Nc1nc2[nH]cnc2c(=O)[nH]1` [guanine] displayed a Relative binding in data set [2] (compound at 1 μM) of 1.

Take `Nc1nc(N)c(N)c(O)n1` [Compound 1.01, 4-hydroxy-2,5,6-triaminopyrimidine]: the results for the “Sensitivity of strains in antibiogram” value in data set [3] and in [19] were “insensitive” and “sensitive”, respectively. Also, the Relative binding in [2] (setting [24]) was determined as 0.26. The MIC was greater than 5000 µg/mL in data set [4], greater than 5000 µg/mL in [9], roughly 600 µg/mL (≈ 4250 µM) in [1] (setting [23]) and greater than 5000 µg/mL in [18]. In data set [5], the “Rapidity of anti-bacterial effect” value is recorded as “as rapid as that of the well-known antibiotic ciprofloxacin”. Moreover, the “Body temperature, milk appearance, milk somatic cell counts, milk quarter production” value in data set [6] is reported as “no change in body temperature, milk appearance, milk somatic cell counts or individual milk quarter production”. In addition, the “Cytotoxicity upon histological observations of mammary tissues” value (100 μg/gland, compared to PBS-treated glands) was “no apparent cytotoxicity”. Besides, the “Signs of toxicity in mice (posture, breathing, piloerection, movement)” value (mouse, in vivo) is recorded as “without causing any significant signs of toxicity”. Besides, the results for the Genes repressed in [7] (600 μg/mL compound alone) and in data set [7] (600 μg/mL compound supplemented with 100 μM GMP) were greater than 75% and 20%, respectively. In addition, the “Passages until resistance is selected” value in data set [8] was “at least 30 passages”. Besides, the “Fold reduction of CFU/mL (control/treated), Mean (log10)” value was determined as 6.35 log10 in data set [10]; 4.86 log10 in data set [11]; 5.42 log10 in [12]; 5.11 log10 in data set [13]; 4.38 log10 in data set [14]; 6.67 log10 in data set [15]. Besides, the “Fold reduction of CFU/mL (control/treated), Mean (log10)” value in data set [16] was determined as 5.42 log10. Besides, the “Reduction of bacterial counts” value in [17] is greater than 3 log10.

The molecule `Nc1ncnc2[nH]cnc12` [adenine] showed a Relative binding in data set [2] (setting [24]) of 0.05.

For the molecule `Nc1nc(S)[nH]c(=O)c1N` [Compound 1.16, 4,5-diamino-6-hydroxy-2-mercaptopyrimidine], the “Antimicrobial activity on E. coli” value in data set [9] is on record as “no antimicrobial activity”. Moreover, in data set [20], the Guanine riboswitch binding entry is “Yes”. Further, the MIC in [1] (setting [25]) is 128 µg/mL (≈ 809 µM). The “S. aureus growth inhibition” value in [1] is recorded as “Yes”.

As for `Nc1[nH]c(=O)[nH]c(=O)c1N`, the Relative binding in [2] (setting [24]) worked out at 0.05.

In the case of `Nc1nc2[nH]cnc2c(=S)[nH]1` [6-thioguanine], the Relative binding in [2] (setting [24]) is recorded as 0.14. The “Antibiotic activity in antibiogram” value in [21] and in [22] was “non-specific antibiotic activity” throughout.

In the case of `Nc1cc(=O)[nH]c(N)n1` [Compound 1.13, 2,4-diamino-6-hydroxypyrimidine], the Relative binding in [2] (setting [24]) was 0.39. Further, the MIC in [4] is greater than 5000 µg/mL; in data set [9] it was greater than 5000 µg/mL; in [1] (setting [23]), roughly 5000 µg/mL (≈ 39600 µM); in [18], greater than 5000 µg/mL.

In [2] (setting [24]), `O=c1[nH]cnc2[nH]cnc12` [hypoxanthine] had a Relative binding of 0.50.

In the case of `CN[C@H](CC(C)C)C(=O)N[C@H]1C(=O)N[C@@H](CC(N)=O)C(=O)N[C@H]2C(=O)N[C@H]3C(=O)N[C@H](C(=O)N[C@H](C(=O)O)c4cc(O)cc(O)c4-c4cc3ccc4O)[C@H](O)c3ccc(c(Cl)c3)Oc3cc2cc(c3O[C@@H]2O[C@H](CO)[C@@H](O)[C@H](O)[C@H]2O[C@H]2C[C@](C)(N)[C@H](O)[C@H](C)O2)Oc2ccc(cc2Cl)[C@H]1O` [Vancomycin, reference compound], the MIC in data set [4] was 0.25 µg/mL (≈ 0.173 µM); in [9], greater than 128 µg/mL; in data set [1], 1 µg/mL (≈ 0.69 µM); in data set [18] it was greater than 128 µg/mL.

Consider `CC[C@H]1OC(=O)[C@H](C)[C@@H](O[C@H]2C[C@@](C)(OC)[C@@H](O)[C@H](C)O2)[C@H](C)[C@@H](O[C@@H]2O[C@H](C)C[C@H](N(C)C)[C@H]2O)[C@](C)(O)C[C@@H](C)C(=O)[C@H](C)[C@@H](O)[C@]1(C)O` [Erythromicin, reference compound], for which the MIC is 0.125 to 1 µg/mL (≈ 0.17 to 1.36 µM) in data set [4], 128 µg/mL (≈ 174 µM) in data set [9], 0.5 µg/mL (≈ 0.681 µM) in data set [1] (setting [23]) and 1 to 4 µg/mL (≈ 1.36 to 5.45 µM) in data set [18].

For `Nc1nc2ocnc2c(=O)[nH]1` [Compound 2.02, 5-Amino-6H-oxazolo[5,4-d]pyrimidin-7-one], the “Antimicrobial activity on E. coli” value in [9] is recorded as “no antimicrobial activity”. Moreover, the Guanine riboswitch binding result in [20] was “able to bind guanine riboswitch and Yes”. In data set [1] (S. aureus ATCC 29213, 24 h, 37° C.), the “S. aureus growth inhibition, MIC” value is 1000 µg/mL. Also, in [1] (setting [25]), the MIC worked out at 1020 µg/mL (≈ 6730 µM). For the same molecule, in data set [1], the “S. aureus growth inhibition” value is “Yes”.

As for `Nc1nc2nc(Cl)sc2c(=O)[nH]1` [Compound 2.17, 5-amino-2-chloro-2,3-dihydrothiazolo[4,5]pyrimidine-7-(6H)-one], the “Antimicrobial activity on E. coli” value in [9] was “no antimicrobial activity”. Further, the Guanine riboswitch binding entry in [20] is given as “Yes”. For the same molecule, the MIC in [1] (setting [25]) stood at 128 µg/mL (≈ 632 µM). Also, the “S. aureus growth inhibition” value in data set [1] is recorded as “Yes”.
